The values below come from PubChem BioAssay AID328 (DTP/NCI, 2004).

Each structure is given as a SMILES string. Values joined by “and” are separate entries in the source; they are usually repeats but may differ in a detail not shown here. Equal values may be shown once. Toxic doses and inconclusive results are not listed.

This assay has as its system BDF1 mice, P388 leukemia ip, median survival T/C. Briefly: NCI In Vivo Anticancer Drug Screen. Data for tumor model P388 Leukemia (intraperitoneal) in B6D2F1 (BDF1) mice. The conditions noted are these: endpoint: median survival time, higher = longer survival. The method, boiled down:
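Transplantable tumour in mice; compound vs vehicle dosing; survival scored; ratio of treated to control reported.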

[1] abbreviates: dose: 50.0 mg/kg/injection, schedule: Q01DX009 (ip), vehicle: Klucel (hydroxypropylcellulose) (HPC).
Setting [2] is: dose: 100.0 mg/kg/injection, schedule: Q01DX009 (ip), vehicle: Klucel (hydroxypropylcellulose) (HPC).
[3] abbreviates: dose: 200.0 mg/kg/injection, schedule: Q01DX009 (ip), vehicle: Klucel (hydroxypropylcellulose) (HPC).
Where [4] appears, read: dose: 400.0 mg/kg/injection, schedule: Q01DX009 (ip), vehicle: Klucel (hydroxypropylcellulose) (HPC).
[5] abbreviates: dose: 100.0 mg/kg/injection, schedule: Q04DX003 (ip), vehicle: Klucel (hydroxypropylcellulose) (HPC).
The mark [6] stands for this setting: dose: 200.0 mg/kg/injection, schedule: Q04DX003 (ip), vehicle: Klucel (hydroxypropylcellulose) (HPC).
Setting [7] is: dose: 400.0 mg/kg/injection, schedule: Q04DX003 (ip), vehicle: Klucel (hydroxypropylcellulose) (HPC).
[8] abbreviates: dose: 100.0 mg/kg/injection, schedule: Q04DX003 (ip), vehicle: saline with Tween-80.
Where [9] appears, read: dose: 200.0 mg/kg/injection, schedule: Q04DX003 (ip), vehicle: saline with Tween-80.
[10] abbreviates: dose: 100.0 mg/kg/injection, schedule: Q01DX009 (ip), vehicle: saline with Tween-80.
[11] abbreviates: dose: 400.0 mg/kg/injection, schedule: Q04DX003 (ip), vehicle: saline with Tween-80.
Where [12] appears, read: dose: 50.0 mg/kg/injection, schedule: Q04DX003 (ip), vehicle: saline with Tween-80.

Turning to `O=C(Nc1ccccc1F)Nc1ccccc1Cl`, the T/C (dose: 25.0 mg/kg/injection, schedule: Q01DX009 (ip), vehicle: Klucel (hydroxypropylcellulose) (HPC)) is 110 % of control and 112 % of control; the T/C under setting [1] was 86 % of control and 105 % of control; the T/C under setting [2] was 101 % of control and 110 % of control; the T/C under setting [3] was 97 % of control and 120 % of control; the T/C under setting [4] was 106 % of control and 107 % of control and 117 % of control.

`O=C1OC(c2ccc([N+](=O)[O-])cc2)Sc2ccccc21` (stereo not given): the T/C reads like this: under setting [1], 86 % of control; (dose: 100.0 mg/kg/injection, schedule: Q01DX001 (ip), vehicle: Klucel (hydroxypropylcellulose) (HPC)) 100 % of control; under setting [5], 100 % of control; (dose: 200.0 mg/kg/injection, schedule: Q01DX001 (ip), vehicle: Klucel (hydroxypropylcellulose) (HPC)) 100 % of control; under setting [3], 100 % of control; under setting [6], 104 % of control. For the same compound, the T/C is, setting by setting: (dose: 400.0 mg/kg/injection, schedule: Q01DX001 (ip), vehicle: Klucel (hydroxypropylcellulose) (HPC)) 100 % of control; under setting [7], 109 % of control.

On to `CCOC(=O)c1c(N)c2cnn(C)c2[nH]c1=O`, for which the T/C reads like this: (dose: 100.0 mg/kg/injection, schedule: Q04DX002 (ip), vehicle: saline with Tween-80) 100 % of control; (dose: 200.0 mg/kg/injection, schedule: Q04DX002 (ip), vehicle: saline with Tween-80) 90 % of control; (dose: 400.0 mg/kg/injection, schedule: Q04DX002 (ip), vehicle: saline with Tween-80) 90 % of control.

On to `COc1cc(NCc2ccc3nc(N)nc(N)c3c2C)cc(OC)c1OC`, for which the T/C by setting is: (dose: 5.0 mg/kg/injection, schedule: Q01DX009 (ip), vehicle: sodium bicarbonate) 154 % of control; (dose: 10.0 mg/kg/injection, schedule: Q01DX009 (ip), vehicle: sodium bicarbonate) 177 % of control; (dose: 12.5 mg/kg/injection, schedule: Q01DX009 (oral), vehicle: sodium bicarbonate) 113 % of control; (dose: 20.0 mg/kg/injection, schedule: Q01DX009 (ip), vehicle: saline with Tween-80) 255 % of control; (dose: 20.0 mg/kg/injection, schedule: Q01DX009 (ip), vehicle: sodium bicarbonate) 227 % of control; (dose: 30.0 mg/kg/injection, schedule: Q01DX009 (ip), vehicle: saline with Tween-80) 398 % of control. In addition, the T/C reads like this: (dose: 40.0 mg/kg/injection, schedule: Q01DX009 (ip), vehicle: sodium bicarbonate) 243 % of control; (dose: 44.0 mg/kg/injection, schedule: Q01DX009 (ip), vehicle: saline with Tween-80) 97 % of control; (dose: 50.0 mg/kg/injection, schedule: Q01DX009 (oral), vehicle: sodium bicarbonate) 170 % of control; (dose: 67.0 mg/kg/injection, schedule: Q01DX009 (ip), vehicle: saline with Tween-80) 95 % of control; (dose: 100.0 mg/kg/injection, schedule: Q01DX009 (oral), vehicle: sodium bicarbonate) 89 % of control.

As for `C#CCOc1ccccc1/C(Cl)=N/Nc1ccc([N+](=O)[O-])cc1[N+](=O)[O-]`, the T/C is, setting by setting: (dose: 1.56 mg/kg/injection, schedule: Q01DX009 (ip), vehicle: saline with Tween-80) 106 % of control; (dose: 3.12 mg/kg/injection, schedule: Q01DX009 (ip), vehicle: saline with Tween-80) 97 % of control; (dose: 6.25 mg/kg/injection, schedule: Q01DX009 (ip), vehicle: saline with Tween-80) 100 % of control.

Turning to `O=C(/C=C/C(=O)Oc1ccccc1)Oc1ccccc1`, the T/C under setting [2] is 90 % of control, the T/C under setting [3] is 109 % of control and the T/C under setting [4] is 90 % of control.

In the case of `NN=C(NN)NN`, the T/C was 105 % of control (dose: 50.0 mg/kg/injection, schedule: Q01DX009 (ip), vehicle: saline); 105 % of control (dose: 100.0 mg/kg/injection, schedule: Q01DX009 (ip), vehicle: saline); 96 % of control (dose: 200.0 mg/kg/injection, schedule: Q01DX009 (ip), vehicle: saline).

For `CC1CC(C)(C)N=C(C[Si](C)(C)CC2=NC(C)(C)CC(C)O2)O1` (stereo not given), the T/C (dose: 25.0 mg/kg/injection, schedule: Q04DX003 (ip), vehicle: Klucel (hydroxypropylcellulose) (HPC)) is 114 % of control; the T/C (dose: 50.0 mg/kg/injection, schedule: Q04DX003 (ip), vehicle: Klucel (hydroxypropylcellulose) (HPC)) was 109 % of control; the T/C under setting [5] is 113 % of control.

On to `CC(=O)Nc1ccc(Cl)c(Cl)c1`, for which the T/C is, setting by setting: (dose: 100.0 mg/kg/injection, schedule: Q04DX003 (ip), vehicle: saline sonified) 100 % of control; under setting [8], 90 % of control; (dose: 200.0 mg/kg/injection, schedule: Q04DX003 (ip), vehicle: saline sonified) 120 % of control; under setting [9], 100 % of control; (dose: 400.0 mg/kg/injection, schedule: Q04DX003 (ip), vehicle: saline sonified) 104 % of control.

Regarding `CN(C)c1ccc(C(=C2C=CC(=[N+](C)C)C=C2)c2ccccc2Cl)cc1`, the T/C (dose: 5.0 mg/kg/injection, schedule: Q01DX010 (ip), vehicle: saline) was 110 % of control.

With `CC(C)(C)C1CC[N-]CC1.CC(C)(C)C1CC[N-]CC1.[Cl][Pt+2]([Cl])([Cl])[Cl]`, the T/C was 110 % of control (dose: 0.78 mg/kg/injection, schedule: Q01DX009 (ip), vehicle: saline); 115 % of control and 117 % of control (dose: 1.56 mg/kg/injection, schedule: Q01DX009 (ip), vehicle: saline); 100 % of control and 102 % of control and 111 % of control (dose: 3.12 mg/kg/injection, schedule: Q01DX009 (ip), vehicle: saline); 86 % of control and 108 % of control (dose: 6.25 mg/kg/injection, schedule: Q01DX009 (ip), vehicle: saline); 115 % of control (dose: 12.5 mg/kg/injection, schedule: Q01DX009 (ip), vehicle: saline); 91 % of control and 115 % of control (dose: 25.0 mg/kg/injection, schedule: Q01DX009 (ip), vehicle: saline).

As to `COc1cccc(NC(=O)CCC(=O)O)c1`, the T/C was 104 % of control under setting [10]; 100 % of control (dose: 200.0 mg/kg/injection, schedule: Q01DX009 (ip), vehicle: saline with Tween-80); 100 % of control (dose: 400.0 mg/kg/injection, schedule: Q01DX009 (ip), vehicle: saline with Tween-80).

Consider `CC(C)CCOP(=S)(N1CC1)N1CC1`, for which, under setting [11], the T/C is 177 % of control.

`OCCCNc1cccc2ccccc12`: the T/C is, setting by setting: under setting [2], 105 % of control; under setting [5], 100 % of control; under setting [3], 100 % of control; under setting [6], 100 % of control; under setting [4], 110 % of control; under setting [7], 100 % of control.

Turning to `[Cl][Co]([Cl])[Cl].[NH-]CC[N-]CC[NH-]`, the T/C is 109 % of control (dose: 50.0 mg/kg/injection, schedule: Q01DX009 (ip), vehicle: saline with Tween-80) and 109 % of control under setting [10].

As to `CC(C)C(OCc1ccccc1)C(=O)O` (stereo not given), the T/C is, setting by setting: under setting [12], 100 % of control; under setting [8], 108 % of control; under setting [9], 108 % of control; under setting [11], 108 % of control.

Turning to `COc1ccc(NC(=S)NN)cc1`, the T/C (dose: 25.0 mg/kg/injection, schedule: Q04DX003 (ip), vehicle: saline with Tween-80) was 100 % of control; the T/C under setting [12] was 100 % of control; the T/C (dose: 66.0 mg/kg/injection, schedule: Q04DX003 (ip), vehicle: saline with Tween-80) is 100 % of control; the T/C under setting [8] was 100 % of control; the T/C (dose: 150.0 mg/kg/injection, schedule: Q04DX003 (ip), vehicle: saline with Tween-80) was 90 % of control.

With `Nc1n[nH]c([N+](=O)[O-])n1`, the T/C is, setting by setting: (dose: 100.0 mg/kg/injection, schedule: Q01DX001 (ip), vehicle: saline sonified) 108 % of control; (dose: 200.0 mg/kg/injection, schedule: Q01DX001 (ip), vehicle: saline sonified) 100 % of control; (dose: 400.0 mg/kg/injection, schedule: Q01DX001 (ip), vehicle: saline sonified) 100 % of control.
